From patent US20240209028A1, “CNP COMPOUNDS” (priority 2022, published 2024)
Read-outs that look alike come from different tables or passages of the source. Starred links: 1 amine or outer side, 2 acyl side, 3 side chain; linkers in the order of their positions; H or OH if unused. Positions of bridges follow the written chain, without caps; N, C: chain ends. Residues, ends and D or L forms follow the SMILES beside them. No end group written: not given here. *: point of attachment. C18 diacid = O=C(O)CCCCCCCCCCCCCCCCC(=O)*; γGlu = O=C(O)[C@H](CCC(=O)[*:2])N[*:1]; C18d = not defined here; AEEA = NCCOCCOCC(=O)O

How the values were obtained:
[1] = target: Recombinant human neprilysin (rhNEP; R&D Systems) (human) (UniProt P08473); assay: cell-based or functional assay
Sequence of Recombinant human neprilysin (rhNEP; R&D Systems) (human) (P08473 52-750 limits assumed): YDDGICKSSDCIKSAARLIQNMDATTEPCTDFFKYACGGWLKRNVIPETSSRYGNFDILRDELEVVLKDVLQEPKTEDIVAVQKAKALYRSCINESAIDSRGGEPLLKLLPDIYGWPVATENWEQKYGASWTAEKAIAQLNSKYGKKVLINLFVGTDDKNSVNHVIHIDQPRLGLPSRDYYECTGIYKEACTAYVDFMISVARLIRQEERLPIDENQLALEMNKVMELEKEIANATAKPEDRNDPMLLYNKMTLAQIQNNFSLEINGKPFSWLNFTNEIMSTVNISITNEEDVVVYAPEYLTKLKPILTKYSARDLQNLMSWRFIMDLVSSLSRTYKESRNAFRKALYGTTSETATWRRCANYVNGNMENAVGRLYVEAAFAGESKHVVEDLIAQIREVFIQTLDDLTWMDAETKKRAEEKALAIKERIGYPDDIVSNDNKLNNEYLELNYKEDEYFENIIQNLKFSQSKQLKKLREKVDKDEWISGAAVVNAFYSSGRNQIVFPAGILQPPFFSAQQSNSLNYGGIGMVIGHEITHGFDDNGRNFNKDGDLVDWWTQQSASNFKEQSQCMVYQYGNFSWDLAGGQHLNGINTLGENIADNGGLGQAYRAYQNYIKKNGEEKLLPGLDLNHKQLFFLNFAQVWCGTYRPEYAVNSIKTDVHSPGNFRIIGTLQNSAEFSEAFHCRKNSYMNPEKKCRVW

[2] = in vivo; cited from earlier work
[3] = Local tolerance of CNP compounds in rats (s.c. injection, histopathology); format: in vivo, Sprague Dawley rat; settings: rat, s.c. 350 μl, about 1000 nmol/ml, 5 days post injection
Description: The purpose of this study was to evaluate the local tissue reaction to subcutaneous injection of CNP compounds in rats.
Procedure: The CNP compounds were formulated according to the principles described in General Methods of Preparation-Method G. Each Sprague Dawley rat (male, 10-11 weeks of age at arrival, Janvier, France) was dosed s.c. with 250 or 350 uL of the same compound (formulation concentration of 1000 nmol/mL) 120 h prior to tissue collection resulting in a total of two injections for each animal (Table 15). Injection site (flank or neck) was alternated across animals within each group and time point.
Animals had access to tap water and food (Altromin 1324) ad libitum. Group size was n=3 for vehicles and positive control, and n=4 for test compounds. Vehicles and compounds were formulated in either 5 mM sodium acetate, 250 mM glycerol, pH 4.0 or 8 mM sodium phosphate, 250 mM glycerol, pH 7.4 as shown in Table 16.
The animals were anesthetized with isoflurane. Via an electric shaving machine, a squared area of fur (2 cm×2 cm) was removed either from the rats' neck or flank area). For dosing, a new injection needle (25G canula, 1 ml syringe) was placed in the middle of the square border closest to the animal's head and the needle was inserted into the skin from the border towards the center of the square. […] On the day of tissue collection, the rats were deeply anaesthetized with isoflurane and euthanized by exsanguination. The injection sites were inspected and scored with regards to pathological lesions. The injection sites were evaluated, and any changes were noted (location, colour, shape and size), and sampled for histology preparation.
The injection sites were removed and fixed in 4% phosphate buffered neutral formaldehyde in sealed plastic containers.
Each injection site was subsequently cut into three sections 0.8 cm, 1.0 cm and 1.2 cm from the square border where the injection needle was placed, and, respectively, these sections represented the injection sites and the adjacent tissue. The tissue was processed, embedded in paraffin and cut in 2-4 μm thin sections, stained with the haematoxylin and eosin (H&E), and evaluated microscopically with a light microscope. Histopathological changes were graded on a 5-level scale (Minimal (Min), Mild (Mil), Moderate (Mod), Marked (Mar) and Severe (Sev)).

[4] = CNP local tolerance study in LYD pigs (s.c. injection, histopathology); format: in vivo, domestic LYD pig; settings: LYD pig, s.c., approx. 4400 μM, 4 or 5 days after injection
Description: The purpose of this study was to evaluate the local tissue reaction response to subcutaneous injection of CNP compounds in pigs.
Procedure: In domestic pigs, the injection site was subjected to histopathologic examination after subcutaneous dosing. Injections were placed mid-back between the shoulder and hip on both sides of the dorsal midline, and one or two days before injection sites of 2×2 cm were shaved and marked by permanent ink under light anaesthesia. Each injection consisted of 100 or 200 μl formulation with a concentration of approx. 4400 μM. CNP compound formulations were prepared according to the principles in General Methods of Preparation—Method G, and were either A) 8 mM sodium phosphate, 250 mM glycerol, pH 6.5, B) 5 mM sodium acetate, 250 mM glycerol, pH 4.0 or C) 5 mM sodium acetate, 240 mM propylene glycol, pH 4.0 and physiological saline was included as negative control.
On Day 1 the pigs were lightly anaesthetised. An insulin pen (NovoPen 4) and insulin needle (NovoTwist 32G/5 mm) were used for accurate deposition of the CNP formulations in the subcutaneous fat tissue with the needle perpendicular to the skin. On Day 5 (4 days post injection) or 6 (5 days post injection), the pigs were euthanised, and the injection sites were removed and fixed in 4% phosphate buffered neutral formaldehyde in sealed plastic containers. The tissue blocks were prefixed for 2-4 hours in 10% buffered formalin, cut into 2 mm thick slabs with a multi knife, examined for macroscopic changes and finally fixed overnight in cassettes. Two slabs of tissue were selected for light microscopic evaluation where the tissue reaction was maximal or alternatively in the central part of the injection site. Three to four 2-4 μm sections were cut from three levels at 100 μm distance, stained with haematoxylin and eosin (H&E) and evaluated in a light microscope. Histopathological changes were graded on a 5-level scale ((Minimal (Min), Mild (Mil), Moderate (Mod), Marked (Mar) and Severe (Sev)). The studies are summarised in Table 18.
Results: The results are summarised in Table 19. * Necrosis was used as a marker for local subcutaneous reactions; **NAD: No Abnormalities Detected

[5] = PK after i.v. and s.c. administration to Göttingen minipig; settings: female, in vivo, Göttingen Minipig
Description: The purpose of this study was to investigate pharmacokinetic and pharmacodynamic properties after intravenous (i.v.) and subcutaneous (s.c.) administration to Gottingen Minipig and domestic LYD pig, and to estimate bioavailability after s.c. dosing. Quantitative plasma analysis of CNP and cGMP levels were performed as described in
Animals and dosing: The pharmacokinetic and pharmacodynamic studies in Gottingen Minipig or domestic LYD pig were conducted at CRO Minerva Imaging or Novo Nordisk A/S, respectively. CNP compounds were dosed to normal female 1) Gottingen minipigs 6-12 months of age with an average weight of 22 kg or 2) domestic LYD pigs 4-5 months of age with and average weight of 80 kg. At least one week prior to dosing, permanent central venous catheters were implanted for blood sampling and intravenous (i.v.) dosing. For subcutaneous (s.c.) dosing, the pigs were ultrasound scanned and the optimal injection area laterally on the neck marked by a permanent tattoo. An insulin pen (NovoPen Echo or NovoPen 4) and insulin needle (NovoFine 32G/4 mm or NovoTwist 32G/5 mm) were used for accurate deposition of the CNP formulations in the subcutaneous fat tissue with the needle perpendicular to the skin.
CNP compounds were formulated according to the principles in General Methods of Preparation—Method G and were either A) 8 mM sodium phosphate, 250 mM glycerol, pH 6.5, B) 5 mM sodium acetate, 250 mM glycerol, pH 4.0, C) 5 mM sodium acetate, 240 mM propylene glycol, pH=4.0, D) 8 mM sodium phosphate, 250 mM glycerol, pH 7.5 or E) 20 mM sodium phosphate, 223 mM propylene glycol, pH 6.0.
Intravenously, the CNP compounds were dosed at 30-60 nmol/kg to Minipig and 15-43 nmol/kg to domestic pig using formulations A-E. Subcutaneously, the CNP compounds were dosed at 55-62 nmol/kg to Minipig and 20-30 nmol/kg to domestic pig using formulations A-D.
Sampling: Blood samples of approximately 1 mL were collected pre dose and up to 14 days post dose into EDTA-coated tubes (8 mM) for cGMP and CNP compound analysis by LC-MS. In few instances, cGMP was only analysed up to 48 hours post dose after intravenous dosing in domestic LYD pig. The blood samples were kept on wet ice for maximum 30 minutes until centrifugation for 10 minutes at 4° C. and minimum 1500G, and the plasma samples were stored at −20° C. until analysis.
Plasma concentration-time profiles were analyzed by non-compartmental PK analysis using Phoenix WinNonlin 8.1, Pharsight Inc., Mountain View, CA, USA. Calculation of the area under the plasma concentration-time curve (AUC) was based on the “linear up log down” method, and uniform weighting was used for estimation of the terminal rate constant (λz). S.c. bioavailability (F) was calculated as the dose-normalized AUC (AUC/dose) after s.c. administration divided by the AUC/dose after i.v. administration. […]

neprilysin (NEP) = neprilysin (NEP) (Homo sapiens, UniProt P08473); assay: In vitro neprilysin stability; settings: recombinant human neprilysin (rhNEP), pH 7.4
Sequence of neprilysin (NEP) (P08473 whole entry): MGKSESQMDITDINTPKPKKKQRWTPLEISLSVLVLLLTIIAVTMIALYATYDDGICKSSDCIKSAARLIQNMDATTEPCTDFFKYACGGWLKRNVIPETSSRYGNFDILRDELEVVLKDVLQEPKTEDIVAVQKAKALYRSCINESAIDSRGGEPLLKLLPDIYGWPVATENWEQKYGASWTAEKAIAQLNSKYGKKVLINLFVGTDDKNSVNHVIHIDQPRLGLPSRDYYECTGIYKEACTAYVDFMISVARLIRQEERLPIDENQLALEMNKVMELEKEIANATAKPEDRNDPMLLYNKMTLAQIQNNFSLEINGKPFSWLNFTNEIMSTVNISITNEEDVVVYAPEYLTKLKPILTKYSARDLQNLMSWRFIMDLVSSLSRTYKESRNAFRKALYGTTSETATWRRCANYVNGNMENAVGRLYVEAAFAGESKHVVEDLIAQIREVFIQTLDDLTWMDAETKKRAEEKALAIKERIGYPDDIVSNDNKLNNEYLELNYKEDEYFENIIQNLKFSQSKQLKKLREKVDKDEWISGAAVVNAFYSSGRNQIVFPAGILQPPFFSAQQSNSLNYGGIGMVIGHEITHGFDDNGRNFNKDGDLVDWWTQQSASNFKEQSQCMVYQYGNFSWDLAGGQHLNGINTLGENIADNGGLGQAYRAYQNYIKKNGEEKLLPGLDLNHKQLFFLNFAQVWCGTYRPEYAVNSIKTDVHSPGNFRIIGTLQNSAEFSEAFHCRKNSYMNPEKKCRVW

[6] = target: Recombinant human neprilysin (rhNEP; R&D Systems) (human, UniProt P08473 52-750); assay: cell-based or functional assay
Sequence of Recombinant human neprilysin (rhNEP; R&D Systems) (P08473 52-750 limits assumed): as the sequence (P08473 52-750 limits assumed) above

## Compound ID 9483, [N-terminal(C18d-4xgGlu), 5Q, 13Q, 19S, 25P, 27E, 32L]-hCNP37 (peptide)
[1]
  Remaining of parent after 90 min (%): 106%

## wt CNP: wild-type C-type natriuretic peptide; half-life of approximately two minutes
[2]
  half-life: approximately two

## CC[C@H](C)[C@@H]1NC(=O)[C@H](CCCNC(=N)N)NC(=O)[C@H](CC(=O)O)NC(=O)[C@H](CC(C)C)NC(=O)[C@@H]2CCCN2C(=O)[C@H](CC(C)C)NC(=O)CNC(=O)[C@H](Cc2ccccc2)NC(=O)[C@@H](NC(=O)CNC(=O)[C@H](CCC(N)=O)NC(=O)[C@H](CO)NC(=O)[C@H](CO)NC(=O)CNC(=O)[C@H](CCCCN)NC(=O)[C@H](CCCCN)NC(=O)[C@H](CCC(N)=O)NC(=O)[C@H](C)NC(=O)CNC(=O)[C@@H]2CCCN2C(=O)[C@H](C)NC(=O)[C@H](CCC(N)=O)NC(=O)CNC(=O)COCCOCCNC(=O)COCCOCCNC(=O)CC[C@H](NC(=O)CCCCCCCCCCCCCCCCC(=O)O)C(=O)O)CSSC[C@@H](C(=O)O)NC(=O)CNC(=O)[C@H](CC(C)C)NC(=O)CNC(=O)[C@H](CO)NC(=O)[C@H](CC(C)C)NC(=O)[C@H](CO)NC(=O)CNC1=O [Compound 9384] ({C18 diacid-γGlu-AEEA-AEEA}-GQAPGAQKKGSSQGCFGLPLDRIGSLSGLGC-OH; disulfide 15-31)
[3]
  Number of injections by severity of necrosis: NAD (No Abnormalities Detected): 4
[4]
  Number of injections by severity of necrosis: Min.: 1
  Number of injections by severity of necrosis: NAD: 3
[5]; iv, i.v., read-out: CL (ml/hr/kg), Intravenous PK (converted)
  clearance: 1.53 mL/h/kg
[5]; iv, i.v., read-out: T½, iv (converted)
  half-life: 61 h
[5]; sc, s.c. bioavailability, read-out: F (%), Subcutaneous PK
  bioavailability: 78%
[5]; sc, s.c., read-out: T½, sc (converted)
  half-life: 61 h
Neprilysin (NEP)
  remaining at 1.5 h, 1000 nM: 87.8%

B1: Compound ID 9384, [N-terminal(C18d-gGlu-2xOEG-GQAP), des1-10, 13Q, 17S, 19Q, 25P, 32L]-hCNP37 (peptide)
peptide: {C18d-γGlu-AEEA-AEEA}-GQAPGAQKKGSSQGCFGLPLDRIGSLSGLGC
modifications: disulfide 15-31 (inferred); reading uncertain; also: printed as [N-terminal(C18d-gGlu-2xOEG-GQAP), des1-10, 13Q, 17S, 19Q, 25P, 32L]-hCNP37
[6]
  Remaining of parent after 90 min (%): 87.8%

B2: Compound ID 9407, [N-terminal(C18d-5xgGlu-4xOEG), des1-5, 13Q, 19Q, 25P, 32L]-hCNP37 (peptide)
peptide: {C18d-γGlu-γGlu-γGlu-γGlu-γGlu-AEEA-AEEA-AEEA-AEEA}-ARKYKGAQKKGLSQGCFGLPLDRIGSLSGLGC
modifications: disulfide 16-32 (inferred); reading uncertain; also: printed as [N-terminal(C18d-5xgGlu-4xOEG), des1-5, 13Q, 19Q, 25P, 32L]-hCNP37
[6]
  Remaining of parent after 90 min (%): 96.6%

B3: Compound ID 9435, [N-terminal(C18d-2xgGlu-4xOEG), des1-8, 13Q, 17G, 19Q, 25P, 32L]-hCNP37 (peptide)
peptide: {C18d-γGlu-γGlu-AEEA-AEEA-AEEA-AEEA}-YKGAQKKGGSQGCFGLPLDRIGSLSGLGC
modifications: disulfide 13-29 (inferred); reading uncertain; also: printed as [N-terminal(C18d-2xgGlu-4xOEG), des1-8, 13Q, 17G, 19Q, 25P, 32L]-hCNP37
[6]
  Remaining of parent after 90 min (%): 93.2%

B4: Compound ID 9480, [N-terminal(C18d-3xgGlu-4xOEG), des1-8, 13Q, 19Q, 25P, 32L]-hCNP37 (peptide)
peptide: {C18d-γGlu-γGlu-γGlu-AEEA-AEEA-AEEA-AEEA}-YKGAQKKGLSQGCFGLPLDRIGSLSGLGC
modifications: disulfide 13-29 (inferred); reading uncertain; also: printed as [N-terminal(C18d-3xgGlu-4xOEG), des1-8, 13Q, 19Q, 25P, 32L]-hCNP37
[6]
  Remaining of parent after 90 min (%): 98.3%

B5: Compound ID 9482, [N-terminal(C18d-5xgGlu), 5Q, 13Q, 19S, 25P, 32L]-hCNP37 (peptide)
peptide: {C18d-γGlu-γGlu-γGlu-γGlu-γGlu}-QEHPQARKYKGAQKKGLSSGCFGLPLDRIGSLSGLGC
modifications: disulfide 21-37 (inferred); reading uncertain
[6]
  Remaining of parent after 90 min (%): 96.3%
